PubChem BioAssay (NCI)
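Where inhibition never reached the appropriate level, the endpoint shown equals the highest concentration tested. Otherwise, values were interpolated linearly from a five-concentration, 48-hour dose response in 96-well plates. TGI is the concentration that stops growth completely.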

Legend:
Assay in all cases: growth of human tumour cells (NCI), 48 h
[1] = system: SN12C renal
[2] = system: HOP-62 NSCLC
[3] = system: SNB-75 CNS
[4] = system: IGROV1 ovarian
[5] = system: SW-620 colon
[6] = system: A549 NSCLC
[7] = system: MOLT-4 leukemia
[8] = system: KM12 colon
[9] = system: NCI-H460 lung
[10] = system: HOP-92 NSCLC

Row | SMILES | TGI [1] | TGI [2] | TGI [3] | TGI [4] | TGI [5] | TGI [6] | TGI [7] | TGI [8] | TGI [9] | TGI [10]
1 | COC(=O)[C@@H](O)[C@](O)(CCC(C)C)C(=O)O[C@@H]1C(OC)=C[C@]23CCCN2CCc2cc4c(cc2[C@H]13)OCO4 | 10.3 µM | 4.75 µM | 14.1 µM | 20 µM | 9.94 µM | 5.19 µM | 6.97 µM | 13 µM | 1.7 µM | 6.26 µM
2 | CC1(C(=O)O)CCC2(C)CCC3(C)C(=CC(=O)C4C5(C)CCC(O)C(C)(C)C5CCC43C)C2C1 (configuration not stated) | > 100 µM |  | > 100 µM |  | > 100 µM | > 100 µM | > 100 µM | 37.3 µM |  | 
3 | Cc1ccc(NC(=O)CC2Sc3ccccc3NC2=O)cc1C (configuration not stated) | > 100 µM | > 100 µM | > 100 µM | > 100 µM | > 100 µM | > 100 µM | > 100 µM | > 100 µM | > 100 µM | 95.8 µM
4 | CC(=O)N1C(C(=O)NC2CCCCC2)CSC1c1ccccc1 (configuration not stated) | > 100 µM | > 100 µM | > 100 µM | > 100 µM | > 100 µM | > 100 µM | > 100 µM | > 100 µM | > 100 µM | > 100 µM
5 | CCN(CC)CCNC(=O)c1cc2cc(NC(=O)c3cc4cc([N+](=O)[O-])ccc4[nH]3)ccc2[nH]1 | > 100 µM | > 100 µM | > 100 µM | > 100 µM | > 58 µM | > 100 µM | > 100 µM |  | > 100 µM | > 50.7 µM
6 | Nc1nc(SCCC/C=C/I)nc2c1ncn2C1OC(COP(=O)(O)O)C(O)C1O (configuration not stated) | > 100 µM | > 100 µM | > 100 µM | > 100 µM | > 100 µM | > 100 µM | > 100 µM | > 100 µM | > 100 µM | > 100 µM
7 | C=CC1(CC/C(=C\[N+](=O)[O-])c2ccc(OC)c(OC)c2)OCC(C)(C)CO1 | 47.6 µM | 60.7 µM |  |  | > 100 µM | > 100 µM | 6.05 µM | 47.2 µM | 55 µM | 54.8 µM
8 | CCC(=O)NC(Nc1cc(C)on1)(C(F)(F)F)C(F)(F)F | > 100 µM | > 100 µM | > 100 µM | > 100 µM | > 100 µM | > 100 µM | > 100 µM | > 100 µM | > 100 µM | > 100 µM
9 | CCOP(=O)(OCC)C(F)(F)c1ccc(CC(NC(=O)OC(C)(C)C)C(=O)O)cc1 (configuration not stated) | > 10 µM | > 10 µM | > 10 µM | > 10 µM | > 10 µM | > 10 µM | > 10 µM | > 10 µM | > 10 µM | > 10 µM
10 | O=[N+]([O-])c1ccc2[nH]nc(OCc3ccccc3Cl)c2c1 | > 100 µM | > 100 µM | > 100 µM | > 100 µM |  | > 100 µM | > 100 µM | > 100 µM | > 100 µM | 47.4 µM
11 | Cc1ccc(-c2csc(=Nc3ccccc3)n2NC(=O)c2ccncc2)cc1 | > 100 µM | > 100 µM | > 88.2 µM | > 100 µM | > 100 µM | > 100 µM | > 76.8 µM | > 100 µM | > 100 µM | > 100 µM
